Tests used:
[1] = target: T1, human histamine H4 receptor (Homo sapiens, UniProt Q9H3N8); test: biochemical
human eosinophils = test: Inhibition of histamine-induced eosinophil shape change (GAFS); assay type: cell-based; conditions: for effect on histamine-induced shape change: human eosinophils
Experimental: Eosinophil accumulation in sites of allergic reaction is a well-known characteristic of allergic rhinitis and asthma. […] Shape change is a cellular characteristic that precedes eosinophil chemotaxis.
Human granulocytes were isolated from human blood by a Ficoll gradient. The red blood cells were lysed with 5-10X Qiagen lysis buffer at room temperature for 5-7 min. Granulocytes were harvested and washed once with FACS buffer. The cells were resuspended at a density of 2×10^6 cells/mL in reaction buffer. […] Ten minutes later the cells were transferred to ice and fixed with 250 μL of ice-cold fixative buffer (2% formaldehyde) for 1 min.
The change in shape of eosinophils is due to cytoskeletal changes that precede chemotaxis and thus is a measure of chemotaxis.

[2] = target: T1, human histamine H4 receptor; test: Binding assay on recombinant human histamine H4 receptor (3H-histamine displacement); conditions: read-out: Binding Assay Ki; repeated in the chemotaxis table
[3] = histamine 0 μM, HR antagonist 10 μM
[4] = histamine 0.01 μM, HR antagonist 10 μM or none
[5] = histamine 0.1 μM, HR antagonist 10 μM or none
[6] = histamine 1 μM, HR antagonist 10 μM or none
[7] = histamine 10 μM, HR antagonist 10 μM or none

Ki [1] [nM]	Structure (SMILES)	also measured
32	CN1CCN(C(=O)c2nc3ccccc3[nH]2)CC1 [Example 1, (1H-Benzoimidazol-2-yl)-(4-methyl-piperazin-1-yl)-methanone]	
528	Cc1ccc2[nH]c(C(=O)N3CCN(C)CC3)nc2c1 [Example 26, (5-Methyl-1H-benzoimidazol-2-yl)-(4-methyl-piperazin-1-yl)-methanone]	
1000	Cc1cc2nc(C(=O)N3CCNCC3)[nH]c2cc1Cl [Example 19, (5-Chloro-6-methyl-1H-benzoimidazol-2-yl)-piperazin-1-yl-methanone]	
51	CN1CCN(C(=O)c2nc3cc(Br)ccc3[nH]2)CC1 [Example 49, (5-Bromo-1H-benzoimidazol-2-yl)-(4-methyl-piperazin-1-yl)-methanone]	
807	CN1CCCN(C(=O)c2nc3cc(F)c(F)cc3[nH]2)CC1 [Example 12, (5,6-Difluoro-1H-benzoimidazol-2-yl)-(4-methyl-[1,4]diazepan-1-yl)-methanone]	
833	CN1CCN(C(=O)c2nc3cccnc3[nH]2)CC1 [Example 34, (3H-Imidazo[4,5-b]pyridin-2-yl)-(4-methyl-piperazin-1-yl)-methanone]	
370	CCN1CCN(C(=O)c2nc3cc(F)ccc3[nH]2)CC1 [Example 30, (4-Ethyl-piperazin-1-yl)-(5-fluoro-1H-benzoimidazol-2-yl)-methanone]	
110	CN1CCN(C(=N)c2nc3cc(Cl)ccc3[nH]2)CC1 [Example 45, C-(5-Chloro-1H-benzoimidazol-2-yl)-C-(4-methyl-piperazin-1-yl)-methyleneamine]	
620	CCN1CCN(C(=O)c2nc3cc(F)c(F)cc3[nH]2)CC1 [Example 10, (5,6-Difluoro-1H-benzoimidazol-2-yl)-(4-ethyl-piperazin-1-yl)-methanone]	
26	CN1CCN(C(=O)c2nc3cc(F)ccc3[nH]2)CC1 [Example 29, (5-Fluoro-1H-benzoimidazol-2-yl)-(4-methyl-piperazin-1-yl)-methanone]	
53	CN1CCN(C(=O)c2nc3cc(F)c(Cl)cc3[nH]2)CC1 [Example 14, (6-Chloro-5-fluoro-1H-benzoimidazol-2-yl)-(4-methyl-piperazin-1-yl)-methanone]	
64	CN1CCN(C(=O)c2nc3c(F)cc(F)cc3[nH]2)CC1 [Example 46, (4,6-Difluoro-1H-benzoimidazol-2-yl)-(4-methyl-piperazin-1-yl)-methanone]	
57	CN1CCN(C(=O)c2nc3c(Cl)cccc3[nH]2)CC1 [Example 41, (4-Chloro-1H-benzoimidazol-2-yl)-(4-methyl-piperazin-1-yl)-methanone]	
355	CC1CN(C(=O)c2nc3cc(F)c(F)cc3[nH]2)CCN1 (stereo not shown) [Example 11, (5,6-Difluoro-1H-benzoimidazol-2-yl)-(3-methyl-piperazin-1-yl)-methanone]	
8000	CN1CCN(C(=O)c2nc3cc(C(=O)c4ccccc4)ccc3[nH]2)CC1 [Example 40, (5-Benzoyl-1H-benzoimidazol-2-yl)-(4-methyl-piperazin-1-yl)-methanone]	
1400	CN1CCCN(C(=O)c2nc3ccccc3[nH]2)CC1 [Example 4, (1H-Benzoimidazol-2-yl)-(4-methyl-[1,4]diazepan-1-yl)-methanone]	
42	O=C(c1nc2cc(F)ccc2[nH]1)N1CCNCC1 [Example 31, (5-Fluoro-1H-benzoimidazol-2-yl)-piperazin-1-yl-methanone]	
23	Cc1c(F)ccc2[nH]c(C(=O)N3CCN(C)CC3)nc12 [Example 48, (5-Fluoro-4-methyl-1H-benzoimidazol-2-yl)-(4-methyl-piperazin-1-yl)-methanone]	
158	CN1CCN(C(=O)c2nc3cc([N+](=O)[O-])ccc3[nH]2)CC1 [Example 47, (4-Methyl-piperazin-1-yl)-(5-nitro-1H-benzoimidazol-2-yl)-methanone]	
11	CN1CCN(C(=O)c2nc3cc(C(F)(F)F)ccc3[nH]2)CC1 [Example 27, (4-Methyl-piperazin-1-yl)-(5-trifluoromethyl-1H-benzoimidazol-2-yl)-methanone]	
226	Cc1cc2nc(C(=O)N3CCN(C)CC3)[nH]c2cc1Cl [Example 18, (5-Chloro-6-methyl-1H-benzoimidazol-2-yl)-(4-methyl-piperazin-1-yl)-methanone]	
216	O=C(c1nc2cc(F)c(Cl)cc2[nH]1)N1CCNCC1 [Example 15, (6-Chloro-5-fluoro-1H-benzoimidazol-2-yl)-piperazin-1-yl-methanone]	
1300	CN1CCCN(C(=O)c2nc3cc(F)c(Cl)cc3[nH]2)CC1 [Example 16, (6-Chloro-5-fluoro-1H-benzoimidazol-2-yl)-(4-methyl-[1,4]diazepan-1-yl)-methanone]	
31	Cc1cccc2[nH]c(C(=O)N3CCN(C)CC3)nc12 [Example 22, (4-Methyl-1H-benzoimidazol-2-yl)-(4-methyl-piperazin-1-yl)-methanone]	

More lines, now with the values behind:

Structure (SMILES)	Ki [1] [nM]	also measured
Cc1cccc2nc(C(=O)N3CCN(C)CC3)oc12 [Example 36, (7-Methyl-benzooxazol-2-yl)-(4-methyl-piperazin-1-yl)-methanone]	1200	
CN1C2CCC1CC(NC(=O)c1nc3cc(F)c(F)cc3[nH]1)C2 (stereo not shown) [Example 13, 5,6-Difluoro-1H-benzoimidazole-2-carboxylic acid (8-methyl-8-aza-bicyclo[3.2.1]oct-3-yl)-amide]	380	
O=C(c1nc2cc(C(F)(F)F)ccc2[nH]1)N1CCNCC1 [Example 28, Piperazin-1-yl-(5-trifluoromethyl-1H-benzoimidazol-2-yl)-methanone]	420	
CC1CN(C(=O)c2nc3cc(Cl)ccc3[nH]2)CCN1 (stereo not shown) [Example 8, (5-Chloro-1H-benzoimidazol-2-yl)-(3-methyl-piperazin-1-yl)-methanone]	300	
CN1C2CCC1CC(NC(=O)c1nc3cc(F)c(Cl)cc3[nH]1)C2 (stereo not shown) [Example 17, 6-Chloro-5-fluoro-1H-benzoimidazole-2-carboxylic acid (8-methyl-8-aza-bicyclo[3.2.1]oct-3-yl)-amide]	535	
CN1CCN(C(=O)c2nc3ccccc3s2)CC1 [Example 39, Benzothiazol-2-yl-(4-methyl-piperazin-1-yl)-methanone]	810	
CN(C)CCOC(c1ccccc1)c1ccccc1 [diphenhydramine]		Fold Change (eosinophil shape change) (human eosinophils; [3]): 1.00; Fold Change (eosinophil shape change) (human eosinophils; [4]): 1.03; Fold Change (eosinophil shape change) (human eosinophils; [5]): 1.18; Fold Change (eosinophil shape change) (human eosinophils; [6]): 1.50; Fold Change (eosinophil shape change) (human eosinophils; [7]): 1.63; effect on histamine-induced shape change (human eosinophils): did not alter the histamine-induced shape change
Cc1ccc2[nH]c(C(=O)NC3CC4CCC(C3)N4C)nc2c1 (stereo not shown) [Example 25, 5-Methyl-1H-benzoimidazole-2-carboxylic acid (8-methyl-8-aza-bicyclo[3.2.1]oct-3-yl)-amide]	613	Ki [2]: 613 nM
CN1CCN(C(=O)c2nc3ccccc3o2)CC1 [Example 35, Benzooxazol-2-yl-(4-methyl-piperazin-1-yl)-methanone]	620	
Cc1cccc2[nH]c(C(=O)N3CCNCC3)nc12 [Example 23, (4-Methyl-1H-benzoimidazol-2-yl)-piperazin-1-yl-methanone]	135	
Cc1cccc2[nH]c(C(=O)N[C@H]3C[C@H]4CC[C@@H](C3)N4C)nc12 [Example 24, 4-Methyl-1H-benzoimidazole-2-carboxylic acid (8-methyl-8-aza-bicyclo[3.2.1]oct-3-yl)-amide]	270	
CC1CN(C(=O)c2nc3cc(F)ccc3[nH]2)CCN1 (stereo not shown) [Example 32, (5-Fluoro-1H-benzoimidazol-2-yl)-(3-methyl-piperazin-1-yl)-methanone]	460	
CNC(=C[N+](=O)[O-])NCCSCc1ccc(CN(C)C)o1 [ranatidine]		Fold Change (eosinophil shape change) (human eosinophils; [3]): 1.00; Fold Change (eosinophil shape change) (human eosinophils; [4]): 1.04; Fold Change (eosinophil shape change) (human eosinophils; [5]): 1.21; Fold Change (eosinophil shape change) (human eosinophils; [6]): 1.49; Fold Change (eosinophil shape change) (human eosinophils; [7]): 1.64; effect on histamine-induced shape change (human eosinophils): did not alter the histamine-induced shape change
CN1C2CCC1CC(NC(=O)c1nc3ccccc3[nH]1)C2 (stereo not shown) [Example 5, 1H-Benzoimidazole-2-carboxylic acid (8-methyl-8-aza-bicyclo[3.2.1]oct-3-yl)-amide]	89	
CCN1CCN(C(=O)c2nc3ccccc3[nH]2)CC1 [Example 2, (1H-Benzoimidazol-2-yl)-(4-ethyl-piperazin-1-yl)-methanone]	490	
CCN1CCN(C(=O)c2nc3c(C)cccc3[nH]2)CC1 [Example 21, (4-Ethyl-piperazin-1-yl)-(4-methyl-1H-benzoimidazol-2-yl)-methanone]	468	
Cc1ccc2oc(C(=O)N3CCN(C)CC3)nc2c1 [Example 37, (5-Methyl-benzooxazol-2-yl)-(4-methyl-piperazin-1-yl)-methanone]	1300	
Cc1cccc2[nH]c(C(=O)N3CCNC(C)C3)nc12 (stereo not shown) [Example 20, (4-Methyl-1H-benzoimidazol-2-yl)-(3-methyl-piperazin-1-yl)-methanone]	156	
CC1CN(C(=O)c2nc3ccccc3[nH]2)CCN1 (stereo not shown) [Example 3, (1H-Benzoimidazol-2-yl)-(3-methyl-piperazin-1-yl)-methanone]	331	
Cc1cccc2oc(C(=O)N3CCN(C)CC3)nc12 [Example 38, (4-Methyl-benzooxazol-2-yl)-(4-methyl-piperazin-1-yl)-methanone]	1600	

— patent US7504426B2, “Heterocyclic compounds” (Janssen Pharmaceutica N.V., priority 2003, dated 2009)
